Measurements as given in US8324250B2 (Hoffmann-La Roche Inc., priority 2009, dated 2012).

biological target: T1, recombinant human NK3 receptor (Homo sapiens, UniProt P29371); experiment: [3H]SR142801 competition binding assay; details: membranes from HEK293 cells transiently expressing recombinant human NK3 receptor; [3H]SR142801 radioligand; 75 min at RT; Ki by Cheng-Prussoff; read-out: Data Ki (hNK-3 receptor affinity)
T1 construct: expressed in transfected cells; host or cells: HEK293 cells (transient expression), membranes
T1 sequence (P29371 1-465): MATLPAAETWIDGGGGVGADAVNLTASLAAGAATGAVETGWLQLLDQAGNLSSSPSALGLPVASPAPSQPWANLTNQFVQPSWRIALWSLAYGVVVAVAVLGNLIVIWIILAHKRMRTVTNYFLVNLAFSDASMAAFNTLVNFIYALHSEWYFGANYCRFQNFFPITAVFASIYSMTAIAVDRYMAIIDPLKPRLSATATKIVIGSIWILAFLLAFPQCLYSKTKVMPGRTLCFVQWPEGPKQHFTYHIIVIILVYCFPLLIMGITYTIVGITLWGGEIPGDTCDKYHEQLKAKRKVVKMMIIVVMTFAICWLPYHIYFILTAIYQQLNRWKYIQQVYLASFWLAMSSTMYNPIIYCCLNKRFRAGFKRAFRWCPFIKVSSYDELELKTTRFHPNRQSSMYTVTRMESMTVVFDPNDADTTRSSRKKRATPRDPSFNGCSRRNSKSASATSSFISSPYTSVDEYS
Description: [^3H]SR142801 Competition Binding Assay
hNK3 receptor binding experiment were performed using [^3H]SR142801 (Catalog No. TRK1035, specific activity: 74.0 Ci/mmol, Amersham, GE Healthcare UK limited, Buckinghamshire, UK) and membrane isolated from HEK293 cells transiently expressing recombinant human NK3 receptor. After thawing, the membrane homogenates were centrifuged at 48,000×g for 10 min at 4° C., the pellets were resuspended in the 50 mM Tris-HCl, 4 mM MnCl2, 1 μM phosphoramidon, 0.1% BSA binding buffer at pH 7.4 to a final assay concentration of 5 μg protein/well. […] At the end of the incubation, membranes were filtered onto unitfilter (96-well white microplate with bonded GF/C filter preincubated 1 h in 0.3% PEI+0.3% BSA, Packard BioScience, Meriden, Conn.) with a Filtermate 196 harvester (Packard BioScience) and washed 4 times with ice-cold 50 mM Tris-HCl, pH 7.4 buffer. Nonspecific binding was measured in the presence of 10 μM SB222200 for both radioligands. The radioactivity on the filter was counted (5 min) on a Packard Top-count microplate scintillation counter with quenching correction after addition of 45 μl of microscint 40 (Can berra Packard S. A., Zurich, Switzerland) and shaking for 1 h. Inhibition curves were fitted according to the Hill equation: y=100/(1+(x/IC50)^nH), where nH=slope factor using Excel-fit 4 software (Microsoft). IC50 values were derived from the inhibition curve and the affinity constant (Ki) values were calculated using the Cheng-Prussoff equation Ki═IC50/(1+[L]/KD) where [L] is the concentration of radioligand and KD is its dissociation constant at the receptor, derived from the saturation isotherm. All experiments were performed in duplicate and the mean±standard error (SEM) of the individual Ki values was calculated.

Row | Ki [nM] | Compound
1 | 78.5 | C[C@H](NC(=O)C1(c2ccccc2)CCN(C(=O)c2ccc(-c3cncnc3)cc2)CC1)c1ccccc1 [Example 44, 4-Phenyl-1-(4-pyrimidin-5-yl-benzoyl)-piperidine-4-carboxylic acid ((S)-1-phenyl-ethyl)-amide]
2 | 5.1 | C[C@H](NC(=O)C1(c2ccc(F)cc2)CCN(C(=O)c2ccc(-c3ccc(F)cc3)cc2)CC1)C1CCCCC1 [Example 92, 1-(4′-Fluoro-biphenyl-4-carbonyl)-4-(4-fluoro-phenyl)-piperidine-4-carboxylic acid ((S)-1-cyclohexyl-ethyl)-amide]
3 | 66 | Cc1nc(-c2ccc(C(=O)N3CCC(C(=O)NC(c4ccc(F)cc4)C(F)(F)F)(c4ccc(F)cc4)CC3)cc2)no1 (stereo not shown) [Example 165, 4-(4-Fluoro-phenyl)-1-[4-(5-methyl-[1,2,4]oxadiazol-3-yl)-benzoyl]-piperidne-4-carboxylic acid [2,2,2-trifluoro-1-(4-fluoro-phenyl)-ethyl]-amide]
4 | 98.5 | C[C@H](NC(=O)C1(c2ccccc2)CCN(C(=O)c2ccc(-n3cncn3)cc2)CC1)c1ccccc1 [Example 34, 4-Phenyl-1-(4-[1,2,4]triazo 1-1-yl-benzoyl)-piperidine-4-carboxylic acid ((S)-1-phenyl-ethyl)-amide]
5 | 19.6 | C[C@H](NC(=O)C1(c2ccccc2)CCN(C(=O)c2ccc(-c3ccc(Cl)c(Cl)c3)cc2)CC1)c1ccccc1 [Example 4, 1-(3′,4′-Dichloro-biphenyl-4-carbonyl)-4-phenyl-piperidine-4-carboxylic acid ((S)-1-phenyl-ethyl)-amide]
6 | 7.8 | O=C(c1ccc(-c2ccc(F)cc2)cc1)N1CCC(C(=O)N[C@@H](CO)c2ccccc2)(c2ccc(F)cc2)CC1 [Example 140, 1-(4′-Fluoro-biphenyl-4-carbonyl)-4-(4-fluoro-phenyl)-piperidine-4-carboxylic acid ((R)-2-hydroxy-1-phenyl-ethyl)-amide]
7 | 76.7 | Cc1ccc(NNC(=O)C2(c3ccc(F)cc3)CCN(C(=O)c3ccc(-c4ccc(F)cc4)cc3)CC2)cc1 [Example 187, 1-(4′-Fluoro-biphenyl-4-carbonyl)-4-(4-fluoro-phenyl)-piperidine-4-carboxylic acid N′-p-tolyl-hydrazide]
8 | 2.7 | CC[C@H](NC(=O)C1(c2ccccc2)CCN(C(=O)c2ccc(-c3ccc(F)cc3)cc2)CC1)c1ccccc1 [Example 85, 1-(4′-Fluoro-biphenyl-4-carbonyl)-4-phenyl-piperidine-4-carboxylic acid ((S)-1-phenyl-propyl)-amide]
9 | 17.2 | C[C@H](NC(=O)C1(c2ccccc2)CCN(C(=O)c2ccc(-c3ccc(F)cc3)cc2)CC1)c1ccc(Cl)cc1 [Example 102, 1-(4′-Fluoro-biphenyl-4-carbonyl)-4-phenyl-piperidine-4-carboxylic acid [(S)-1-(4-chloro-phenyl)-ethyl]-amide]
10 | 8.7 | C[C@H](NC(=O)C1(c2ccccc2)CCN(C(=O)N2CCN(c3ccc(F)cc3)CC2)CC1)c1ccc(F)cc1 [Example 203, 1-[4-(4-Fluoro-phenyl)-piperazine-1-carbonyl]-4-phenyl-piperidine-4-carboxylic acid [(S)-1-(4-fluoro-phenyl)-ethyl]-amide]
11 | 36 | O=C(c1ccc(-c2ccc(F)cc2)cc1)N1CCC(C(=O)NC(c2ccc(F)cc2)C(F)(F)F)(c2ccc(F)cc2)CC1 (stereo not shown) [Example 146, 1-(4′-Fluoro-biphenyl-4-carbonyl)-4-(4-fluoro-phenyl)-piperidine-4-carboxylic acid [2,2,2-trifluoro-1-(4-fluoro-phenyl)-ethyl]-amide]
12 | 37 | CC(=O)c1ccc(-c2ccc(C(=O)N3CCC(C(=O)N[C@@H](C)c4ccccc4)(c4ccccc4)CC3)cc2)cc1 [Example 59, 1-(4′-Acetyl-biphenyl-4-carbonyl)-4-phenyl-piperidine-4-carboxylic acid ((S)-1-phenyl-ethyl)-amide]
13 | 11.2 | Cc1noc(-c2ccc(C(=O)N3CCC(C(=O)N[C@@H](C)c4ccc(Cl)cc4)(c4ccccc4)CC3)cc2)n1 [Example 104, 1-[4-(3-Methyl-[1,2,4]oxa-diazol-5-yl)-benzoyl]-4-phenyl-piperidine-4-carboxylic acid [(S)-1-(4-chloro-phenyl)-ethyl]-amide]
14 | 9.4 | Cc1nc(-c2ccc(C(=O)N3CCC(C(=O)N[C@@H](C)c4ccccc4)(c4ccccc4)CC3)cc2)no1 [Example 41, 1-[4-(5-Methyl-[1,2,4]oxa-diazol-3-yl)-benzoyl]-4-phenyl-piperidine-4-carboxylic acid ((S)-1-phenyl-ethyl)-amide]

Second part, the molecule before the results:

Row | Compound | Ki [nM]
15 | C[C@H](NC(=O)C1(c2ccccc2)CCN(C(=O)C2CCN(c3ccc(C#N)cn3)CC2)CC1)c1ccccc1 [Example 61, 1-(5′-Cyano-3,4,5,6-tetrahydro-2H-[1,2′]bipyrid-inyl-4-carbonyl)-4-phenyl-piperidine-4-carboxylic acid ((S)-1-phenyl-ethyl)-amide] | 37.9
16 | CC[C@H](NC(=O)C1(c2ccccc2)CCN(C(=O)N2CCN(c3ccc(F)cc3)CC2)CC1)c1ccccc1 [Example 231, 1-[4-(4-Fluoro-phenyl)-piperazine-1-carbonyl]-4-phenyl-piperidine-4-carboxylic acid ((S)-1-phenyl-propyl)-amide] | 3.4
17 | C[C@H](NC(=O)C1(c2ccccc2)CCN(C(=O)c2ccc(N3CCS(=O)(=O)CC3)cc2)CC1)c1ccccc1 [Example 9, 1-[4-(1,1-Dioxo-lλ6-thiomorpholin-4-yl)-benzoyl]-4-phenyl-piperidine-4-carboxylic acid ((S)-1-phenyl-ethyl)-amide] | 21.8
18 | Cc1noc(C2CCN(C(=O)N3CCC(C(=O)N[C@@H](C)c4ccccc4)(c4ccccc4)CC3)CC2)n1 [Example 214, 1-[4-(3-Methyl-[1,2,4]oxadiazol-5-yl)-piperidine-1-carbonyl]-4-phenyl-piperidine-4-carboxylic acid ((S)-1-phenyl-ethyl)-amide] | 9
19 | C[C@H](NC(=O)C1(c2ccccc2)CCN(C(=O)N2CCN(C3CCCC3)CC2)CC1)c1ccccc1 [Example 215, 1-(4-Cyclopentyl-piperazine-1-carbonyl)-4-phenyl-piperidine-4-carboxylic acid ((S)-1-phenyl-ethyl)-amide] | 20.6
20 | Cc1ccc(N2CCN(C(=O)N3CCC(C(=O)N[C@@H](C)c4ccccc4)(c4ccccc4)CC3)CC2)cc1 [Example 208, 4-Phenyl-1-(4-p-tolyl-piperazine-1-carbonyl)-piperidine-4-carboxylic acid ((S)-1-phenyl-ethyl)-amide] | 70.9
21 | C[C@H](NC(=O)C1(c2ccccc2)CCN(C(=O)N2CCC(N3CCS(=O)(=O)CC3)CC2)CC1)c1ccc(F)cc1 [Example 223, 1-[4-(1,1-Dioxo-1λ6-thiomorpholin-4-yl)-piperidine-1-carbonyl]-4-phenyl-piperidine-4-carboxylic acid [(S)-1-(4-fluoro-phenyl)-ethyl]-amide] | 6
22 | C[C@H](NC(=O)C1(c2ccccc2)CCN(C(=O)N2CCN(c3ccc(F)cc3)CC2)CC1)c1ccccc1 [Example 213, 1-[4-(4-Fluoro-phenyl)-piperazine-1-carbonyl]-4-phenyl-piperidine-4-carboxylic acid ((S)-1-phenyl-ethyl)-amide] | 8.8
23 | C[C@H](NC(=O)C1(c2ccccc2)CCN(C(=O)c2ccc(N3CCCCC3)nc2)CC1)c1ccccc1 [Example 12, 4-Phenyl-1-(3,4,5,6-tetrahydro-2H-[l,2′]bipyridinyl-5′-carbonyl)-piperidine-4-carboxylic acid ((S)-1-phenyl-ethyl)-amide] | 50.4
24 | C[C@H](NC(=O)C1(c2ccccc2)CCN(C(=O)N2CCN(c3ccc(C#N)cn3)CC2)CC1)c1ccccc1 [Example 227, 1-[4-(5-Cyano-pyridin-2-yl)-piperazine-1-carbonyl]-4-phenyl-piperidine-4-carboxylic acid ((S)-1-phenyl-ethyl)-amide] | 24.9
25 | C[C@H](NC(=O)C1(c2ccccc2)CCN(C(=O)c2ccc(-n3cncn3)nc2)CC1)c1ccccc1 [Example 39, 4-Phenyl-1-(6-[l,2,4]triazol-1-yl-pyridine-3-carbonyl)-piperidine-4-carboxylic acid ((S)-1-phenyl-ethyl)-amide] | 80.8
